Tests used:
[1] = tested on: Leukotriene B4 receptor 1 (Cavia porcellus); experiment: Percent inhibition of [3H]-LTB4 binding to guinea pig spleen Leukotriene B4 receptor at the concentration of 10e-5 M
[2] = tested on: Leukotriene A-4 hydrolase (Sus scrofa); experiment: Tested for 50% inhibition of LTA4 hydrolase at 2*10e-5M concentration in porcine leukocyte homogenates
[3] = tested on: Leukotriene A-4 hydrolase (Sus scrofa); experiment: Tested for Percentage inhibition of LTA4 hydrolase at 2*10e-5M concentration in porcine leukocyte homogenates
[4] = compound was tested for 50% inhibition of LTA4 hydrolase at 2*10e-5M concentration in porcine leukocyte homogenates; type: tissue-based, Sus scrofa

Row | inhibition [1] | inhibition [2] | inhibition [3] | IC50 [4] | Compound
1 | 17% |  |  |  | O=C(O)CCCCCCc1ccsc1C(=O)CCc1ccccc1
2 |  | 68% |  |  | O=C(O)CCCCCCc1csc(Cc2ccccc2)c1
3 |  | 0% |  |  | O=C(O)CCCCCCc1sccc1CCCc1ccccc1
4 | 0% | 25% |  |  | O=C(O)CCCCCCc1cc(-c2ccccc2)cs1
5 |  |  | 0% |  | O=C(O)CCCCCCc1sc(-c2ccccc2)cc1CCCc1ccccc1
6 |  | 0% |  |  | O=C(O)CCCCCCc1ccsc1CCCc1ccccc1
7 | 59% |  |  |  | O=C(O)CCCCCC(=O)c1sccc1CCCc1ccccc1
8 | 10% | 100% |  | 1500 nM | O=C(O)CCCCCCc1csc(CCCc2ccccc2)c1
9 | 51% |  |  |  | Cc1cc(C(=O)CCCCCC(=O)O)c(CCCc2ccccc2)s1
10 | 38% | 0% |  |  | O=C(O)CCCCCCc1ccsc1CCc1ccccc1
11 |  |  | 68% |  | COc1ccc(CCCc2cc(CCCCCCC(=O)O)cs2)cc1
12 | 36% | 32% |  |  | O=C(O)CCCCCc1cc(CCCc2ccccc2)cs1
13 | 15% | 0% |  |  | O=C(O)CCCCCCc1sccc1Cc1ccccc1
14 | 39% | 9% |  |  | O=C(O)CCCCCCc1sccc1CCCCCc1ccccc1
15 |  | 49% |  |  | O=C(O)CCCCCCc1csc(CCc2ccccc2)c1
16 |  |  | 24% |  | O=C(O)CCCCCCc1ccsc1CCCc1ccc(Cl)cc1
17 |  |  | 73% |  | O=C(O)CCCCCCc1csc(CCCc2ccc(Cl)cc2)c1
18 | 31% | 49% |  |  | O=C(O)CCCCCCc1cc(CCCCCc2ccccc2)cs1
19 |  | 84% |  | 2900 nM | O=C(O)CCCCCCc1ccc(CCCc2ccccc2)s1
20 |  |  | 0% |  | Cc1cc(CCCCCCC(=O)O)c(CCCc2ccccc2)s1
21 | 33% | 70% |  | 9600 nM | O=C(O)CCCCCCc1cc(Cc2ccccc2)cs1
22 | 35% | 0% |  |  | O=C(O)CCCCc1cc(CCCc2ccccc2)cs1
23 |  |  | 100% |  | O=C(O)CCCCCCc1csc(CCCc2ccc(O)cc2)c1
24 | 38% | 42% |  |  | O=C(O)CCCCCCc1cc(CCCc2ccccc2)cs1
25 |  | 0% |  |  | O=C(O)CCCCc1sccc1CCCc1ccccc1

— ChEMBL document CHEMBL1126193, “Omega-[(omega-arylalkyl)thienyl]alkanoic acids: from specific LTA4 hydrolase inhibitors to LTB4 receptor antagonists” (J Med Chem, 1992)
